Laboratory results reported in ChEMBL document CHEMBL3046089, “A study on the reactions of alkyl 4,6-bis(4-fluorophenyl)-2-oxocyclohex-3-ene-1-carboxylate and in vitro antioxidant activity of derivatives” (Med Chem Res, 2013).

Columns and labels:
[1] = test system: Radical scavenging activity; experiment: Antioxidant activity assessed as DPPH radical scavenging activity at 1 mg/ml after 20 min by spectrophotometric analysis; type: functional
[2] = Antioxidant activity assessed as concentration equivalent of 0.5 absorbance glutathione for potassium ferricyanide reduction after 20 min by spectrophotometric assay; type: functional

Row | SMILES | Activity [1] [%] | Activity [2] [mg/mL]
1 | CCOC(=O)C1=C(N)C=C(c2ccc(F)cc2)CC1c1ccc(F)cc1 (stereo unspecified) | 68 | 25
2 | O=c1c2c(-c3ccc(F)cc3)cc(-c3ccc(F)cc3)cc2[nH]n1-c1ccccc1 | 95.2 | 5.55
3 | O=c1c2c([nH]n1-c1ccc([N+](=O)[O-])cc1)C=C(c1ccc(F)cc1)CC2c1ccc(F)cc1 (stereo unspecified) | 94.4 | 3.52
4 | O=c1[nH][nH]c2c1C(c1ccc(F)cc1)CC(c1ccc(F)cc1)=C2 (stereo unspecified) | 95.9 | 1.81
5 | COC(=O)C1=C(N)C=C(c2ccc(F)cc2)CC1c1ccc(F)cc1 (stereo unspecified) | 40.9 | 5.55
6 | COC(=O)C1/C(=N/NC(N)=O)C=C(c2ccc(F)cc2)CC1c1ccc(F)cc1 (stereo unspecified) | 65.4 | 20
7 | N/N=C(N)/N=C1/C=C(c2ccc(F)cc2)CC(c2ccc(F)cc2)C1 (stereo unspecified) | 89.2 | 4.03
8 | CCOC(=O)C1/C(=N/NC(N)=O)C=C(c2ccc(F)cc2)CC1c1ccc(F)cc1 (stereo unspecified) | 66.5 | 8.33
9 | O=C1Nc2ccccc2Nc2cc(-c3ccc(F)cc3)cc(-c3ccc(F)cc3)c21 | 58.7 | 2.64
10 | COC(=O)c1c(OC)cc(-c2ccc(F)cc2)cc1-c1ccc(F)cc1 | 49.1 | 14.3
11 | CCOC(=O)c1c(OC)cc(-c2ccc(F)cc2)cc1-c1ccc(F)cc1 | 50.2 | 22.7
12 | O/N=C1/C=C(c2ccc(F)cc2)CC(c2ccc(F)cc2)C1 (stereo unspecified) | 89.2 | 4.54
13 | N[C@@H](CCC(=O)N[C@@H](CS)C(=O)NCC(=O)O)C(=O)O | 92.1 | 0.595
